Measured values reported in ChEMBL document CHEMBL1143801, “Synthesis, SAR and antibacterial studies on novel chalcone oxazolidinone hybrids” (2007).
≈ marks a conversion by molar mass, not a printed value.

Experiments:
Format in all cases: functional
[1] = tested on: Staphylococcus aureus; assay: Antibacterial activity against Staphylococcus aureus ATCC 29213
[2] = tested on: Enterococcus faecalis; assay: Antibacterial activity against Enterococcus faecalis NCTC 12201
[3] = tested on: Enterococcus faecium; assay: Antibacterial activity against Enterococcus faecium ATCC 12202
[4] = tested on: Enterococcus faecalis; assay: Antibacterial activity against Enterococcus faecalis ATCC 29212
[5] = tested on: Staphylococcus aureus; assay: Antibacterial activity against Staphylococcus aureus ATCC 49951
[6] = tested on: Staphylococcus aureus; assay: Antibacterial activity against Staphylococcus aureus ATCC 33591

| Compound | MIC [1] [µg/mL] | MIC [2] [µg/mL] | MIC [3] [µg/mL] | MIC [4] [µg/mL] | MIC [5] [µg/mL] | MIC [6] [µg/mL] |
| --- | --- | --- | --- | --- | --- | --- |
| COc1ccc(/C=C/C(=O)c2ccc(N3C[C@H](CNC(C)=O)OC3=O)cc2)cc1OC | > 32 | > 32 | > 32 | > 32 | > 32 | > 32 |
| CC(=O)NC[C@H]1CN(c2ccc(/C=C/C(=O)c3ccccc3)cc2)C(=O)O1 | > 32 | > 32 | > 32 | > 32 | > 32 | > 32 |
| CC(=O)NC[C@H]1CN(c2ccc(/C=C/C(=O)c3c(F)cc(Cl)cc3Cl)cc2)C(=O)O1 | > 32 | > 32 | > 32 | > 32 | > 32 | > 32 |
| CC(=O)NC[C@H]1CN(c2ccc(C(=O)/C=C/c3ncc[nH]3)c(F)c2)C(=O)O1 | 16 (≈ 43 µM) | 16 (≈ 43 µM) | 16 (≈ 43 µM) | 16 (≈ 43 µM) | 16 (≈ 43 µM) | 16 (≈ 43 µM) |
| CC(=O)NC[C@H]1CN(c2ccc(/C=C/C(=O)c3ccc(C)cc3)cc2)C(=O)O1 | > 32 | 32 (≈ 84.6 µM) | 32 (≈ 84.6 µM) | 32 (≈ 84.6 µM) | 32 (≈ 84.6 µM) | 32 (≈ 84.6 µM) |
| COC(=O)c1ccc(/C=C/C(=O)c2ccc(N3C[C@H](CNC(C)=O)OC3=O)cc2)cc1 | > 32 | > 32 | > 32 | > 32 | > 32 | > 32 |
| CC(=O)NC[C@H]1CN(c2ccc(C(=O)/C=C/c3ccco3)cc2)C(=O)O1 | 16 (≈ 45.2 µM) | 32 (≈ 90.3 µM) | 32 (≈ 90.3 µM) | 32 (≈ 90.3 µM) | 16 (≈ 45.2 µM) | 32 (≈ 90.3 µM) |
| CC(=O)NC[C@H]1CN(c2ccc(C(=O)/C=C/c3ccco3)c(F)c2)C(=O)O1 | 8 (≈ 21.5 µM) | 16 (≈ 43 µM) | 16 (≈ 43 µM) | 16 (≈ 43 µM) | 8 (≈ 21.5 µM) | 8 (≈ 21.5 µM) |
| CC(=O)NC[C@H]1CN(c2ccc(C(=O)/C=C/c3cccs3)c(F)c2)C(=O)O1 | 32 (≈ 82.4 µM) | 32 (≈ 82.4 µM) | 32 (≈ 82.4 µM) | 32 (≈ 82.4 µM) | 32 (≈ 82.4 µM) | 32 (≈ 82.4 µM) |
| CC(=O)NC[C@H]1CN(c2ccc(C(=O)/C=C/c3nccn3C)c(F)c2)C(=O)O1 | 32 (≈ 82.8 µM) | 32 (≈ 82.8 µM) | 32 (≈ 82.8 µM) | 32 (≈ 82.8 µM) | 32 (≈ 82.8 µM) | 32 (≈ 82.8 µM) |
| COc1cc(/C=C/C(=O)c2ccc(N3C[C@H](CNC(C)=O)OC3=O)cc2)cc(OC)c1OC | > 32 | > 32 | > 32 | > 32 | > 32 | > 32 |
| CC(=O)NC[C@H]1CN(c2ccc(C(=O)/C=C/c3ccccn3)c(F)c2)C(=O)O1 | 8 (≈ 20.9 µM) | 16 (≈ 41.7 µM) | 16 (≈ 41.7 µM) | 16 (≈ 41.7 µM) | 4 (≈ 10.4 µM) | 4 (≈ 10.4 µM) |
| CC(=O)NC[C@H]1CN(c2ccc(/C=C/C(=O)c3cccc(F)c3)cc2)C(=O)O1 | > 64 | > 64 | > 64 | > 64 | > 64 | 64 (≈ 167 µM) |
| CC(=O)NC[C@H]1CN(c2ccc(/C=C/C(=O)c3ccc([N+](=O)[O-])cc3)cc2)C(=O)O1 | 32 (≈ 78.2 µM) | 32 (≈ 78.2 µM) | 32 (≈ 78.2 µM) | 32 (≈ 78.2 µM) | 32 (≈ 78.2 µM) | 32 (≈ 78.2 µM) |
| CC(=O)NC[C@H]1CN(c2ccc(C(=O)/C=C/c3ccc(F)cc3)cc2)C(=O)O1 | > 32 | > 32 | > 32 | > 32 | > 32 | > 32 |
| COc1ccc(C(=O)/C=C/c2ccc(N3C[C@H](CNC(C)=O)OC3=O)cc2)cc1 | > 32 | > 32 | > 32 | > 32 | > 32 | > 32 |
| COC(=S)NC[C@H]1CN(c2ccc(C(=O)/C=C/c3ccccn3)c(F)c2)C(=O)O1 | 0.5 (≈ 1.2 µM) | 1 (≈ 2.41 µM) | 2 (≈ 4.81 µM) | 2 (≈ 4.81 µM) | 1 (≈ 2.41 µM) | 0.25 (≈ 0.602 µM) |
| CC(=O)NC[C@H]1CN(c2ccc(C(=O)/C=C/c3ccccn3)cc2)C(=O)O1 | 32 (≈ 87.6 µM) | 64 (≈ 175 µM) | 64 (≈ 175 µM) | 64 (≈ 175 µM) | 32 (≈ 87.6 µM) | 32 (≈ 87.6 µM) |
| CC(=O)NC[C@H]1CN(c2ccc(C(=O)/C=C/c3ccccc3)cc2)C(=O)O1 | > 32 | > 32 | > 32 | > 32 | > 32 | > 32 |
| CC(=O)NC[C@H]1CN(c2ccc(N3CCOCC3)c(F)c2)C(=O)O1 [LINEZOLID] | – | – | 2 (≈ 5.93 µM) | – | – | 1 (≈ 2.96 µM) |
| CN[C@H](CC(C)C)C(=O)N[C@H]1C(=O)N[C@@H](CC(N)=O)C(=O)N[C@H]2C(=O)N[C@H]3C(=O)N[C@H](C(=O)N[C@H](C(=O)O)c4cc(O)cc(O)c4-c4cc3ccc4O)[C@H](O)c3ccc(c(Cl)c3)Oc3cc2cc(c3O[C@@H]2O[C@H](CO)[C@@H](O)[C@H](O)[C@H]2O[C@H]2C[C@](C)(N)[C@H](O)[C@H](C)O2)Oc2ccc(cc2Cl)[C@H]1O [VANCOMYCIN] | – | > 32 | > 32 | 2 (≈ 1.38 µM) | – | – |
